The experiment concerns the target T1, α1A-ARS (Homo sapiens, UniProt P35348).
T1 sequence (P35348 1-466): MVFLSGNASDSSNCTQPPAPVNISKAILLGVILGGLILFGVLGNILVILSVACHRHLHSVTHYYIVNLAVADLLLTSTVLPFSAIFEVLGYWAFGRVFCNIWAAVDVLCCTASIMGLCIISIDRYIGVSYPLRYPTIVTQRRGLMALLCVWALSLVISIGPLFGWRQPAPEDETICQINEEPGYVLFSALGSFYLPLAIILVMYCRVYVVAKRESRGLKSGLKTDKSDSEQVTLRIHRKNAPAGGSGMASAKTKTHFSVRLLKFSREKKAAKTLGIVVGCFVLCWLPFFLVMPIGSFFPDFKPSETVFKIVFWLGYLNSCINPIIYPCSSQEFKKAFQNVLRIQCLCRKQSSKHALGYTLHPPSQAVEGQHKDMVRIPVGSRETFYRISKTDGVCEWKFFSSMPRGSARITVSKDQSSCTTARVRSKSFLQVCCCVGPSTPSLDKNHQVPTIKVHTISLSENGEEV
Kind of experiment: Calcium flux assay (Calcium 6 dye) in cells expressing an α1-AR. In kind it is cell-based. The following applies: for Emax: read-out: Average Emax; for EC50: mean of at least three experiments, read-out: Average PEC50. From the text: Calcium flux experimental design: alpha-1 adrenergic receptors (α1-ARs) couple to Gq proteins, which results in downstream activation of phospholipase C and release of calcium from intracellular stores. Intracellular calcium increase upon α1-AR activation can be detected by Calcium 6 dye.
Cell preparation: cells expressing an α1-AR were washed in warmed phosphate-buffered saline to remove medium and harvested using versene (Caisson Labs, catalog #EDL01).
Media was removed from cells by tapping plates upside-down on absorbent wipes, followed by 15 second upside-down 50×g centrifugation, again on absorbent wipes. 12 μL cell dye solution was added to cells using a reagent dispenser (Integra viaFILL) and cells were incubated for 90 minutes at 37° C., 5% CO2.
Compound preparation: candidate alpha-adrenergic compounds, dissolved to 10 mM in DMSO, were diluted in_assay buffer (HBSS/H-EPES containing 2 mM CaCl2 and 2 mM probenecid sodium salt). […] On all assay plates, vehicle (DMSO) and positive control (10 μM epinephrine) conditions were included on the plate, as well as a dose-response curve of epinephrine. […] 384 well compound plates were centrifuged briefly at 250×g, sealed (Axygen PCR-SP) and incubated at 37° C. until the 90 minute cell dye incubation was complete.
Calcium 6 stained cells and 384 well compound plates were loaded onto the Flexstation and incubated on the machine for 5 minutes before initiating the assay.
For each assay well, baseline Calcium 6 fluorescence was detected for 18 seconds prior to 12 μL compound addition at 12 μL per second. Changes in Calcium 6 fluorescence were detected for a further 22 seconds, for a total read time of 40 seconds. All detection was performed with medium gain sensitivity, bottom read, with 6 flashes per read.
Data analysis: for calcium flux, analysis of maximum change from baseline over the 40-second read time was determined using Softmax Pro and data was exported as raw text files. Potency estimates (EC50) were derived from dose response curves (maximum change from baseline versus the log concentration of test compound) fit by four-parameter nonlinear regression using Graphpad Prism. Efficacy was determined by comparing the magnitude of the test compound signal window (fitted curve max−min) with the signal window of the full agonist control, epinephrine. […] All experiments were repeated a minimum of three times, with the average (mean) potency and maximum effect relative to the within-plate full agonist dose-response comparator reported.
On the technique in general: Calcium assays in cells follow changes in intracellular calcium, usually with a dye or a luminescent sensor.

Setting [1] is: calcium flux, α1A-AR, maximum effect relative to full agonist epinephrine.

Where two headings read alike, the source gives them in different places.

One may read the Emax as the greatest response seen or fitted, relative to the assay's reference.

As to `Cn1nccc1-c1ccc(CC2=NCCN2)cc1Cl` [Compound 1], the maximal response (Emax) under setting [1] was less than 20%. For the same compound, the EC50 (calcium flux, α1A-AR) is greater than 1 µM.
The like results for `Clc1cc(CC2=NCCN2)ccc1-c1ccn[nH]1` [Compound 2] were, in that order, less than 20% and greater than 1 µM.
In the same order, the values of `Clc1cc(CC2=NCCN2)ccc1-c1ncco1` [Compound 3] are less than 20% and greater than 1 µM.
The like results for `Cc1csc(-c2ccc(CC3=NCCN3)cc2Cl)n1` [Compound 4] were, in that order, less than 20% and greater than 1 µM.
Turning to `Cc1c(CC2=NCCN2)cccc1-c1ncco1` [Compound 5], the Emax under setting [1] lay in the range of 21 to 60%. For the same compound, under “calcium flux, α1A-AR”, the EC50 is 0.01 to 0.977 µM.
In the same order, the values of `Cc1c(CC2=NCCN2)cccc1-c1cn[nH]c1` [Compound 6] are 21 to 60% and 0.01 to 0.977 µM.
As for `Cc1c(CC2=NCCN2)cccc1-c1ccnn1C` [Compound 7], the Emax under setting [1] lay in the range of 21 to 60%. Besides, the EC50 (calcium flux, α1A-AR) lay in the range of 0.01 to 0.977 µM.
As to `Cc1csc(-c2cccc(CC3=NCCN3)c2C)n1` [Compound 8], the Emax under setting [1] is less than 20%. The EC50 (calcium flux, α1A-AR) is greater than 1 µM.
The like results for `Clc1ccc(CC2=NCCN2)cc1-c1ncco1` [Compound 10] were, in that order, 21 to 60% and 0.01 to 0.977 µM.
As for `Cn1nccc1-c1cc(CC2=NCCN2)ccc1Cl` [Compound 11], under setting [1], the Emax is less than 20%. Further, where the note is “calcium flux, α1A-AR”, the EC50 is greater than 1 µM.
For the compound `Cc1c(CC2=NCCN2)ccc(-c2ncco2)c1Cl` [Compound 12], the Emax under setting [1] is less than 20%. Moreover, under “calcium flux, α1A-AR”, the EC50 lay within 0.01 to 0.977 µM.
In the case of `Clc1ccc(CC2=NCCN2)c(-c2ncco2)c1` [Compound 13], the Emax under setting [1] was greater than 61%. In addition, the EC50 (calcium flux, α1A-AR) fell in the range of 0.01 to 0.977 µM.
The like results for `Cc1c(CC2=NCCN2)ccc(Cl)c1-c1ncco1` [Compound 14] were, in that order, 21 to 60% and 0.01 to 0.977 µM.
Take `Cc1c(CC2=NCCN2)ccc(Cl)c1-c1ccnn1C` [Compound 15]: the Emax under setting [1] was less than 20%. Also, the EC50 (calcium flux, α1A-AR) was greater than 1 µM.
The like results for `Cn1nccc1-c1cc(Cl)ccc1CC1=NCCN1` [Compound 16] were, in that order, 21 to 60% and 0.01 to 0.977 µM.
The like results for `Cc1c(CC2=NCCN2)ccc(Cl)c1-c1cn[nH]c1` [Compound 17] were, in that order, less than 20% and greater than 1 µM.
In the same order, the values of `Clc1ccc(CC2=NCCN2)c(-c2ccccn2)c1` [Compound 18] are greater than 61% and 0.01 to 0.977 µM.
Turning to `Clc1ccc(CC2=NCCN2)c(-c2cccnc2)c1` [Compound 19], the Emax under setting [1] was greater than 61%. Moreover, the EC50 (calcium flux, α1A-AR) was greater than 1 µM.
The like results for `Cc1c(CC2=NCCN2)cccc1-c1cc[nH]n1` [Compound 20] were, in that order, 21 to 60% and 0.01 to 0.977 µM.
As to `Clc1ccc(CC2=NCCN2)c(-n2cccn2)c1` [Compound 21], the Emax under setting [1] is greater than 61%. For the same compound, the EC50 (calcium flux, α1A-AR) lay in the range of 0.01 to 0.977 µM.
In the same order, the values of `Cc1c(CC2=NCCN2)cccc1-n1cccn1` [Compound 22] are 21 to 60% and 0.01 to 0.977 µM.
As for `Clc1ccc(CC2=NCCN2)cc1-n1cccn1` [Compound 23], under setting [1], the maximum response (Emax) fell in the range of 21 to 60%. Also, the EC50 (calcium flux, α1A-AR) lay within 0.01 to 0.977 µM.
As for `Cc1csc(-c2cc(Cl)ccc2CC2=NCCN2)n1` [Compound 24], the maximum response (Emax) under setting [1] fell in the range of 21 to 60%. Also, the EC50 (calcium flux, α1A-AR) is 0.01 to 0.977 µM.
In the same order, the values of `Clc1ccc(CC2=NCCN2)c(-c2nccs2)c1` [Compound 25] are greater than 61% and less than 0.00977 µM.
With `Cc1c(CC2=NCCN2)cccc1-c1cccs1` [Compound 26], the maximal effect (Emax) under setting [1] is less than 20%. Besides, the EC50 (calcium flux, α1A-AR) fell in the range of 0.01 to 0.977 µM.
The like results for `Clc1ccc(CC2=NCCN2)c(-c2cnccn2)c1` [Compound 27] were, in that order, 21 to 60% and 0.01 to 0.977 µM.
In the same order, the values of `Clc1ccc(CC2=NCCN2)c(-c2cccs2)c1` [Compound 28] are greater than 61% and less than 0.00977 µM.
In the same order, the values of `Cc1c(CC2=NCCN2)cccc1-c1ccco1` [Compound 29] are 21 to 60% and 0.01 to 0.977 µM.
With `Clc1ccc(CC2=NCCN2)c(-c2ccco2)c1` [Compound 30], the maximal response (Emax) under setting [1] was greater than 61%. The EC50 (calcium flux, α1A-AR) was less than 0.00977 µM.
With `Clc1ccc(CC2=NCCN2)c(-c2ncccn2)c1` [Compound 32], the Emax under setting [1] is greater than 61%. Moreover, the EC50 (calcium flux, α1A-AR) lay in the range of 0.01 to 0.977 µM.
In the same order, the values of `Clc1ccc(CC2=NCCN2)c(-c2cccnn2)c1` [Compound 33] are less than 20% and greater than 1 µM.
The like results for `Clc1ccc(CC2=NCCN2)c(-c2ccncn2)c1` [Compound 34] were, in that order, 21 to 60% and greater than 1 µM.
In the same order, the values of `Cc1ccoc1-c1cc(Cl)ccc1CC1=NCCN1` [Compound 35] are greater than 61% and less than 0.00977 µM.
For the compound `Cc1c(CC2=NCCN2)ccc(Cl)c1-c1nccs1` [Compound 36], the Emax under setting [1] was less than 20%. In addition, for the setting “calcium flux, α1A-AR”, the EC50 was greater than 1 µM.
In the same order, the values of `Cc1cc(-c2cc(Cl)ccc2CC2=NCCN2)sn1` [Compound 37] are 21 to 60% and 0.01 to 0.977 µM.
`Cc1cc(Cl)ccc1CC1=NCCN1` [Compound 38]: the Emax was in the range of 21 to 60%. Besides, under “calcium flux, α1A-AR”, the EC50 is 0.01 to 0.977 µM.
As to `FC(F)(F)c1cc(Cl)ccc1CC1=NCCN1` [Compound 39], the maximal effect (Emax) was greater than 61%. Under “calcium flux, α1A-AR”, the EC50 was 0.01 to 0.977 µM.
With `COc1cc(Cl)ccc1CC1=NCCN1` [Compound 40], the Emax lay within 21 to 60%. In addition, the EC50 (calcium flux, α1A-AR) fell in the range of 0.01 to 0.977 µM.
As to `CC(C)(C)c1cc(Cl)ccc1CC1=NCCN1` [Compound 41], the Emax was less than 20%. The EC50 (calcium flux, α1A-AR) was greater than 1 µM.
The like results for `Cc1oc2ccc(CC3=NCCN3)cc2c1C` [Compound 42] were, in that order, less than 20% and greater than 1 µM.
The like results for `Cc1oc2cc(CC3=NCCN3)ccc2c1C` [Compound 43] were, in that order, 21 to 60% and 0.01 to 0.977 µM.
The like results for `Cc1c(CC2=NCCN2)cc(C)c2occc12` [Compound 44] were, in that order, 21 to 60% and 0.01 to 0.977 µM.
Take `Cc1oc2c(CC3=NCCN3)cccc2c1C` [Compound 45]: the Emax is greater than 61%. Further, the EC50 (calcium flux, α1A-AR) was 0.01 to 0.977 µM.
For `c1cc2c(cc1CC1=NCCN1)NCC21CC1` [Compound 46], the Emax under setting [1] is 21 to 60%. In addition, the EC50 (calcium flux, α1A-AR) lay within 0.01 to 0.977 µM.
As for `COc1c(CC2=NCCN2)ccc2occc12` [Compound 47], the Emax fell in the range of 21 to 60%. The EC50 (calcium flux, α1A-AR) is 0.01 to 0.977 µM.
In the same order, the values of `c1cc(CC2=NCCN2)c2occc2c1` [Compound 48] are greater than 61% and 0.01 to 0.977 µM.
`c1cc(CC2=NCCN2)c2[nH]ccc2c1` [Compound 50]: the maximal effect (Emax) lay within 21 to 60%. The EC50 (calcium flux, α1A-AR) lay in the range of 0.01 to 0.977 µM.
In the same order, the values of `c1cc(CC2=NCCN2)c2[nH]ncc2c1` [Compound 51] are 21 to 60% and greater than 1 µM.
In the same order, the values of `Clc1c(CC2=NCCN2)ccc2occc12` [Compound 52] are less than 20% and 0.01 to 0.977 µM.
For `Clc1cc2occc2cc1CC1=NCCN1` [Compound 53], the Emax is greater than 61%. The EC50 (calcium flux, α1A-AR) was less than 0.00977 µM.
In the same order, the values of `Cc1c(CC2=NCCN2)ccc2occc12` [Compound 54] are 21 to 60% and 0.01 to 0.977 µM.
The like results for `Cc1c(CC2=NCCN2)ccc2[nH]ncc12` [Compound 55] were, in that order, 21 to 60% and 0.01 to 0.977 µM.
With `Cc1c(CC2=NCCN2)cc(Cl)c2occc12` [Compound 56], the Emax is 21 to 60%. In addition, under “calcium flux, α1A-AR”, the EC50 is 0.01 to 0.977 µM.
The like results for `Cc1c(CC2=NCCN2)ccc2c1CCO2` [Compound 58] were, in that order, 21 to 60% and 0.01 to 0.977 µM.
The like results for `Cc1cc2cccc(CC3=NCCN3)c2o1` [Compound 59] were, in that order, greater than 61% and 0.01 to 0.977 µM.
In the same order, the values of `Cc1coc2c(CC3=NCCN3)cccc12` [Compound 60] are 21 to 60% and 0.01 to 0.977 µM.
Regarding `Cc1c(CC2=NCCN2)ccc2cc[nH]c12` [Compound 61], the maximum response (Emax) was less than 20%. For the same compound, the EC50 (calcium flux, α1A-AR) was 0.01 to 0.977 µM.

The values are drawn from patent publication US20230312524A1, “ALPHA1A-ADRENERGIC RECEPTOR AGONISTS AND METHODS OF USE” (CuraSen Therapeutics, Inc., priority 2020, published 2023).
